Assay results taken from patent publication US20100086520A1, “Compositions, Kits and Uses For Protecting The Skin Against Pathogenic Microorganisms” (OrganoBalance GmbH, priority 2006, published 2010).
Bridge positions count the residues as written; N and C are the ends. Square brackets hold non-standard residues; d marks the D form. Peptide text beside a SMILES is read from it. * marks the point of attachment. Ileψ(thiazoline)Cys = CC[C@H](C)[C@H](N)C1=N[C@H](C(=O)*)CS1; dOrn = NCCC[C@@H](N)C(=O)O

What was measured:
[1] = tested on: Staphylococcus aureus (DSM346); test: in-vitro-hole plate assay, growth inhibition of S. aureus in comparison to bacitracin and erythromycin (Example 12); format: cell-based; settings: BHI agar, pre-cut holes; antibiotics at different concentrations, defined numbers of Lactobacillus cells; FIG. 10A/10B
Source text: The degree of growth inhibition of the microorganism(s) of the transient pathogenic skin micro flora in comparison to the inhibition of growth of at least one such microorganism after the use of an antibiotic can preferably be observed in vitro, more preferably in an assay in which a microorganism according to aspect (ii) of the invention, as described herein above, is contacted with one or more microorganisms of the transient pathogenic skin micro flora and the growth of the(se) microorganism(s) of the transient pathogenic skin micro flora is determined. Most preferably, the comparison of growth inhibition can be determined in an “in vitro hole plate assay” as described in the Examples and mentioned herein above. […]
This effect has been compared to commercial antibiotic cream preparations of bacitracin and erythromycin. […] The diameter of the inhibition zones has been measured and the area of inhibition has been calculated thereof. […]

Candida albicans = settings: in vivo; cited from earlier work
resident flora = settings: infants, after treatment with the antibiotic; cited from earlier work

Compound | growth inhibition of the indicator strain S. aureus (inhibition zone, area of inhibition) [1] | increase of the pathogenic yeast Candida albicans (Candida albicans) | repression of the resident flora (resident flora)
CC[C@H]1OC(=O)[C@H](C)[C@@H](O[C@H]2C[C@@](C)(OC)[C@@H](O)[C@H](C)O2)[C@H](C)[C@@H](O[C@@H]2O[C@H](C)C[C@H](N(C)C)[C@H]2O)[C@](C)(O)C[C@@H](C)C(=O)[C@H](C)[C@@H](O)[C@]1(C)O [erythromycin] | growth inhibition of the indictator strain S. aureus has been observed | – | –
Lactobacillus delbrückii ssp. delbrückii OB-LB-Sa3 | growth inhibition of S. aureus | – | –
CC1(C)S[C@@H]2[C@H](NC(=O)[C@H](N)c3ccc(O)cc3)C(=O)N2[C@H]1C(=O)O [amoxicillin] | – | more than a fourteen-fold increase | about 50%
CC[C@H](C)[C@H](N)C1=N[C@H](C(=O)N[C@@H](CC(C)C)C(=O)N[C@H](CCC(=O)O)C(=O)N[C@H](C(=O)N[C@H]2CCCCNC(=O)[C@H](CC(N)=O)NC(=O)[C@@H](CC(=O)O)NC(=O)[C@H](Cc3cnc[nH]3)NC(=O)[C@@H](Cc3ccccc3)NC(=O)[C@H]([C@@H](C)CC)NC(=O)[C@@H](CCCN)NC2=O)[C@@H](C)CC)CS1 [bacitracin] ({Ileψ(thiazoline)Cys}-L[dE]IK[dOrn]I[dF]H[dD]N; lactam 4-C) | growth inhibition of the indictator strain S. aureus has been observed | – | –
